Target: Recombinant human PAI-1 (Homo sapiens, UniProt P05121)
Test: Plasma clot lysis assay for testing of PAI-1 inhibitors (clot lysis in platelet-poor plasma)
Format: biochemical
Details: concentration at which clot lysis time is halved (pIC50=-log IC50); platelet-poor plasma 50%, PAI-1 10-13 ng/mL, t-PA 34 ng/mL, 37° C.
Method: Plasma Clot Lysis Assay for Testing of PAI-1 Inhibitors
CaCl2, p.a. Stock solution 0.1 M in water.
PAI-1 inhibitors dissolved in 100% DMSO.
Experimental Procedures—Clot Lysis in Platelet-Poor Plasma
Blood from healthy fat-fasting volunteers was collected into 0.13 M trisodium citrate, 9 parts blood to 1 part anticoagulant. The tubes were centrifuged at 2000×g, 20 min, at RT. The supernatant, ie, the platelet poor plasma was pooled, aliquoted and frozen at −85° C. until used. At the day of experiment the plasma was thawed in a water bath and temperated to 37° C. All other constituents, except t-PA, were prewarmed to 37° C. To each well on a microtiter plate, 25 μL CaCl2, 25 μL PAI-1 or 25 μL PAI-1 vehicle, 20 μL saline and 5 μL drug or 5 μL vehicle (100% DMSO) were added. Plasma was mixed with cold t-PA solution in the relation 4 parts plasma with 1 part t-PA, just before adding 125 μL of this mixture to each well. The final concentration was 12.5 mM for CaCl2, 10-13 ng/mL for PAI-1, 34 ng/mL for t-PA, and the compounds were tested at a final concentration range 0.1 nM to 0.25 mM. The final plasma concentration was 50%, as a result of the different additives. The plate, covered with a plastic lid, was placed in a Microplate reader (Molecular Devices, US) and gently shaken. The change in turbidity was immediately monitored as a change in absorbance at 405 nm at 37° C. Data points were collected at intervals of 2 min, during a period of 10 h. After finished reading, the absorbance data were transformed into files containing the time and absorbance values for each well. The clot longevity, ie, the time the clot exists, was determined as the time between clot formation, ie, positive Vmax, and clot lysis, ie, negative Vmax. The effect of the drugs, ie, shortening of the longevity for the clot, was expressed as the concentration at which a halving of the clot lysis time was reached, the IC50 (pIC50=−log IC50). Control clot lysis time, set to 100%, was determined in the presence of PAI-1, and the maximal effect, ie, the shortest lysis time that can be reached under defined conditions in this system, in the absence of PAI-1 was set to 0%.
Compounds having a pIC50 higher than 4 were considered as being active.

Recombinant human PAI-1, sequence (P05121 24-402): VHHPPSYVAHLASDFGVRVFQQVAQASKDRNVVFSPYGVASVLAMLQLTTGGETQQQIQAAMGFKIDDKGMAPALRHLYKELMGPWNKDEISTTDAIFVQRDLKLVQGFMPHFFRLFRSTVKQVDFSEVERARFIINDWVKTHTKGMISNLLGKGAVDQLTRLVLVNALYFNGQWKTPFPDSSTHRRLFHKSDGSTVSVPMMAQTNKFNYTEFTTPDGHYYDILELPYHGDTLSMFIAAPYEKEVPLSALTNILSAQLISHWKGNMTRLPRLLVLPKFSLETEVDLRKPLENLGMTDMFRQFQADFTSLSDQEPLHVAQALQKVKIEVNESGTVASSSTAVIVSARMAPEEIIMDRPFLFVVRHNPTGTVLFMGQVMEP

IC50 [µM]	Structure (SMILES)
15.8	CCCCCCCc1cc(=O)n2c(c1-c1ccc(F)c(F)c1)SC[C@H]2C(=O)O [Example 1, (3R)-8-(3,4-Difluoro-phenyl)-7-heptyl-5-oxo-2,3-dihydro-5H-thiazolo[3,2-a]pyridine-3-carboxylic acid]
10	CCCCCCCc1cc(=O)n2c(c1-c1ccc(F)c(F)c1)SC[C@H]2C(=O)NS(C)(=O)=O [Example 2, (3R)—N-[8-(3,4-Difluoro-phenyl)-7-heptyl-5-oxo-2,3-dihydro-5H-thiazolo[3,2-a]pyridine-3-carbonyl]-methanesulfonamide]
12.6	CCCCCCCc1cc(=O)n([C@@H](C)C(=O)O)cc1-c1ccc(F)c(F)c1 [Example 3, (2S)-2-[5-(3,4-Difluoro-phenyl)-4-heptyl-2-oxo-2H-pyridin-1-yl]-propionic acid]
50.1	CCCCCCCc1cc(=O)n2c(c1-c1ccc(F)c(F)c1)SC[C@@H]2C(N)=O [Example 4, (3S)-8-(3,4-Difluoro-phenyl)-7-heptyl-5-oxo-2,3-dihydro-5H-thiazolo[3,2-a]pyridine-3-carboxylic acid amide]
25.1	CCCCCCCc1cc(=O)n2c(c1-c1ccc(F)c(F)c1)SC[C@H]2c1nnn[nH]1 [Example 5, (3R)-8-(3,4-Difluoro-phenyl)-7-heptyl-3-(1H-tetrazol-5-yl)-2,3-dihydro-thiazolo[3,2-a]pyridin-5-one]
20	CCCCCCCc1c(-c2ccc(F)c(F)c2)c2n(c(=O)c1C(=O)O)[C@H](C(=O)OC)CS2 [Example 6, (3R)-8-(3,4-Difluoro-phenyl)-7-heptyl-5-oxo-2,3-dihydro-5H-thiazolo[3,2-a]pyridine-3,6-dicarboxylic acid 3-methyl ester]
12.6	CCCCCCCc1cc(=O)n2c(c1-c1cccc(C(F)(F)F)c1)SC[C@H]2C(=O)O [Example 7, (3R)-7-Heptyl-5-oxo-8-(3-trifluoromethyl-phenyl)-2,3-dihydro-5H-thiazolo[3,2-a]pyridine-3-carboxylic acid]
2.51	CCCCCCCc1cc(=O)n2c(c1-c1cccc(C(F)(F)F)c1)SC[C@H]2C(=O)NS(=O)(=O)c1ccccc1 [Example 8, (3R)—N-[7-Heptyl-5-oxo-8-(3-trifluoromethyl-phenyl)-2,3-dihydro-5H-thiazolo[3,2-a]pyridine-3-carbonyl]-benzenesulfonamide]
39.8	CCCCc1cc(=O)n2c(c1-c1cccc(C(F)(F)F)c1)SC[C@H]2C(=O)O [Example 9, (3R)-7-Butyl-5-oxo-8-(3-trifluoromethyl-phenyl)-2,3-dihydro-5H-thiazolo[3,2-a]pyridine-3-carboxylic acid]
3.98	CCCCCCCc1c(-c2cccc(C(F)(F)F)c2)c2n(c(=O)c1[N+](=O)[O-])[C@H](C(=O)O)CS2 [Example 10, (3R)-7-Heptyl-6-nitro-5-oxo-8-(3-trifluoromethyl-phenyl)-2,3-dihydro-5H-thiazolo[3,2-a]pyridine-3-carboxylic acid]
10	CCCCCCCc1cc(=O)n2c(c1-c1ccc(F)c(F)c1)SC[C@@H]2C(=O)O [Example 11, (3S)-8-(3,4-Difluoro-phenyl)-7-heptyl-5-oxo-2,3-dihydro-5H-thiazolo[3,2-a]pyridine-3-carboxylic acid]
12.6	CCCCCCc1c(-c2cccc(C(F)(F)F)c2)c2n(c(=O)c1[N+](=O)[O-])[C@H](C(=O)O)CS2 [Example 12, (3R)-7-Hexyl-6-nitro-5-oxo-8-(3-trifluoromethyl-phenyl)-2,3-dihydro-5H-thiazolo[3,2-a]pyridine-3-carboxylic acid]
12.6	CC(C)CCc1c(-c2cccc(C(F)(F)F)c2)c2n(c(=O)c1[N+](=O)[O-])[C@H](C(=O)O)CS2 [Example 13, (3R)-7-(3-methylbutyl)-6-nitro-5-oxo-8-(3-trifluoromethyl-phenyl)-2,3-dihydro-5H-thiazolo[3,2-a]pyridine-3-carboxylic acid]
12.6	CCCCCCc1c(-c2cccc(C(F)(F)F)c2)c2n(c(=O)c1N)[C@H](C(=O)O)CS2 [Example 14, (3R)-6-Amino-7-hexyl-5-oxo-8-(3-trifluoromethyl-phenyl)-2,3-dihydro-5H-thiazolo[3,2-a]pyridine-3-carboxylic acid]
39.8	CCCCc1c(-c2cccc(C(F)(F)F)c2)c2n(c(=O)c1[N+](=O)[O-])[C@H](C(=O)O)CS2 [Example 15, (3R)-7-Butyl-6-nitro-5-oxo-8-(3-trifluoromethyl-phenyl)-2,3-dihydro-5H-thiazolo[3,2-a]pyridine-3-carboxylic acid]
79.4	CC(C)CCc1c(-c2cccc(C(F)(F)F)c2)c2n(c(=O)c1N)[C@H](C(=O)O)CS2 [Example 16, (3R)-6-Amino-7-(3-methyl-butyl)-5-oxo-8-(3-trifluoromethyl-phenyl)-2,3-dihydro-5H-thiazolo[3,2-a]pyridine-3-carboxylic acid]
20	CCCCCCCc1c(-c2ccc(F)c(F)c2)c2n(c(=O)c1[N+](=O)[O-])[C@H](C(=O)O)CS2 [Example 17, (3R)-8-(3,4-Difluoro-phenyl)-7-heptyl-6-nitro-5-oxo-2,3-dihydro-5H-thiazolo[3,2-a]pyridine-3-carboxylic acid]
3.98	CCCCCCCCc1cc(=O)n2c(c1-c1cccc(C(F)(F)F)c1)SC[C@H]2C(=O)O [Example 18, (3R)-7-octyl-5-oxo-8-[3-(trifluoromethyl)phenyl]-2,3-dihydro-5H-[1,3]thiazolo[3,2-a]pyridine-3-carboxylic acid]
10	CCCCCCCc1cc(=O)n2c(c1-c1cccs1)SC[C@H]2C(=O)O [Example 19, (3R)-7-heptyl-5-oxo-8-(2-thienyl)-2,3-dihydro-5H-[1,3]thiazolo[3,2-a]pyridine-3-carboxylic acid]
12.6	CCCCCCCc1cc(=O)n2c(c1-c1c[nH]c3ccccc13)SC[C@H]2C(=O)O [Example 20, (3R)-7-heptyl-8-(1H-indol-3-yl)-5-oxo-2,3-dihydro-5H-[1,3]thiazolo[3,2-a]pyridine-3-carboxylic acid]
12.6	O=C(O)[C@@H]1CSc2c(-c3ccccc3)c(CCCOc3ccc(Cl)cc3Cl)cc(=O)n21 [Example 21, (3R)-7-[3-(2,4-dichloro-phenoxy)-propyl]-5-oxo-8-phenyl-2,3-dihydro-51H-thiazolo[3,2-a]pyridine-3-carboxylic acid]
10	CCCCCCCc1cc(=O)n2c(c1-c1ccc(F)c(F)c1)S[C@H](OC)[C@H]2C(=O)O [Example 22, (2S,3R)-8-(3,4-difluorophenyl)-7-heptyl-2-methoxy-5-oxo-2,3-dihydro-5H-[1,3]thiazolo[3,2-a]pyridine-3-carboxylic acid]
10	CCCCCCCc1cc(=O)n2c(C(=O)O)csc2c1-c1ccc(F)c(F)c1 [Example 23, 8-(3,4-difluorophenyl)-7-heptyl-5-oxo-5H-[1,3]thiazolo[3,2-a]pyridine-3-carboxylic acid]
5.01	CCCCCCCc1cc(=O)n2c(c1-c1ccc(F)c(F)c1)S[C@H](c1ccccc1)[C@H]2C(=O)O [Example 24, (2R,3R)-8-(3,4-difluorophenyl)-7-heptyl-5-oxo-2-phenyl-2,3-dihydro-5H-[1,3]thiazolo[3,2-a]pyridine-3-carboxylic acid]
3.98	CCCCCCCc1cc(=O)n2c(c1-c1ccc(F)c(F)c1)S[C@H](C)[C@H]2C(=O)O [Example 25, (2R,3R)-8-(3,4-difluorophenyl)-7-heptyl-2-methyl-5-oxo-2,3-dihydro-5H-[1,3]thiazolo[3,2-a]pyridine-3-carboxylic acid]
